Data published in the METLIN SMRT retention time set (Domingo-Almenara et al. 2019).

Assay: gradient 5% acetonitrile 3 min, to 50% in 2 min, to 85% in 15 min, held 3 min, 100 µL/min
Details: column: Zorbax Extend-C18 2.1 x 50 mm; eluents: water / acetonitrile, 0.1% formic acid
Outline: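 Pure standards were analyzed in mixtures of ~100 molecules using HPLC coupled to a quadrupole time-of-flight mass spectrometer, in both positive and negative ionization mode. Separation used a Zorbax Extend-C18 column (2.1 × 50 mm, 1.8 μm) at 100 μL/min, with water and acetonitrile each containing 0.1% formic acid. Dead and dwell volumes were 40 μL and 900 μL, and data were collected over 3 months. Retention time was read from computationally picked adduct peaks, each inspected manually.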

Row | SMILES | RP-LC retention time
1 | CCN1CCN(c2cc(C)c3cc(NC(=O)CSc4ccccc4)ccc3n2)CC1 | 602 s
2 | CN(C)c1ccc(CNC(=O)Cc2c[nH]c3ncccc23)cc1 | 640 s
3 | O=C(NCc1ccncc1)C1CCCN(c2ncnc3c2oc2ccccc23)C1 (stereo unspecified) | 579 s
4 | Cn1cc(-c2cc3n(n2)CCCN3C(=O)CCC(=O)N2CCN(c3ccccn3)CC2)c2ccccc21 | 621 s
5 | O=C(CN1CCN(Cc2cccc(Cl)c2)C1=O)NCc1ccc(C(F)(F)F)cc1 | 931 s
6 | CC(=O)N1CCC(C(=O)Nc2cccc(OCc3nnc(-c4ccccc4)o3)c2)CC1 | 716 s
7 | CC1CC(=O)N(CC(=O)Nc2cccc(C(F)(F)F)c2)c2ccccc2S1(=O)=O (stereo unspecified) | 875 s
8 | CCOC(=O)CC(=O)CSc1ccc2nnc(-c3cccs3)n2n1 | 671 s
9 | CCOc1ccc(NC(=O)Cn2nc3cc(C)nc(N4CCCC4)n3c2=O)cc1 | 765 s
10 | CCN1c2cc(Cl)ccc2C(=O)NC12CCN(C(=O)NCc1ccc(C)cc1)CC2 | 888 s
11 | O=C(Nc1nc(C(=O)N2CCN(C(=O)c3ccco3)CC2)co1)c1ccsc1 | 656 s
12 | CC(C)CCNC(=O)C1CCCN(C(=O)c2cc(-c3ccncc3)n[nH]2)C1 (stereo unspecified) | 591 s
13 | CCn1c(C(=O)NCCN2CCCCCC2)c(N2CCCC2=O)c2cc(F)ccc21 | 664 s
14 | O=C(c1cn(-c2cc(N3CCOCC3)ncn2)cn1)N1CCSCC1 | 685 s
15 | CN(C)c1ccc(C(CNC(=O)c2ccccc2[N+](=O)[O-])N2CCOCC2)cc1 (stereo unspecified) | 560 s
16 | O=C(Nc1ccc2c(c1)OCCO2)c1cn2c(n1)COCC2 | 606 s
17 | O=c1c2ccccc2ncn1Cc1noc(Cc2ccc(Br)cc2)n1 | 871 s
18 | COc1ccc(-c2nc(C3CC(=O)N(c4ccc(OC)c(OC)c4)C3)no2)cc1F (stereo unspecified) | 853 s
19 | CCc1nnc2ccc(-c3noc(-c4ccc(OC)c(OC)c4)n3)cn12 | 829 s
20 | CCc1nc(NCc2ccc3c(c2)OCO3)ncc1C(=O)O | 766 s
21 | CC(C)(C)C(=O)N1CCCC(C(=O)N2CCOCC2)C1 (stereo unspecified) | 625 s
22 | CCOC(=O)C1CCN(Cc2nc(-c3ccc(N4CCCC4)nc3)no2)CC1 | 572 s

Row | SMILES | RP-LC retention time
23 | CCOc1ccc(S(=O)(=O)N2CCCC2c2nc(-c3cccc(Cl)c3)no2)cc1 (stereo unspecified) | 1230 s
24 | CCOCCCNC(=O)N1CC(c2nc(C)no2)C2(CCOCC2)C1 (stereo unspecified) | 616 s
25 | CC(=O)c1cccc(NC(=O)c2c(F)cccc2F)c1 | 708 s
26 | CC1CCN(c2cc(-n3cnc(C(=O)N4CCCCCC4)c3)ncn2)CC1 | 1010 s
27 | O=C(c1cccs1)N1CCN(c2nnc3ccc(Cl)cn23)CC1 | 691 s
28 | CC(NC(=O)Cn1c(C(F)(F)F)nc2cc3c(cc21)OCCO3)c1ccc2c(c1)OCCCO2 (stereo unspecified) | 855 s
29 | Cn1c(=O)n(CCN2CCCCC2)c(=O)c2c1nc1n2CCCN1c1ccc(Cl)cc1 | 668 s
30 | O=C(O)/C=C\C(=O)Nc1ccc(-c2ccccc2)cc1 | 903 s
31 | CCCCN(C)C(=O)Cn1c(=O)c(S(=O)(=O)c2ccccc2)cc2ccccc21 | 893 s
32 | CCOc1ccccc1C(=O)n1nc(C)c(S(=O)(=O)N2CCC(C)CC2)c1C | 1230 s
33 | O=C(Nc1ccc(C(F)(F)F)cc1)NC1CCN(c2cc(N3CCOCC3)cnn2)C1 (stereo unspecified) | 685 s
34 | CCn1cnc(S(=O)(=O)N2CCCC(C(=O)NCCc3ccccc3)C2)c1 (stereo unspecified) | 702 s
35 | O=C(NCCCn1ccnc1)C(=O)NC1CCCCC1 | 545 s
36 | O=C(NCC1CCCO1)c1cn2ccccc2n1 (stereo unspecified) | 565 s
37 | O=C(NCc1ccccc1)Nc1ccc2nc(-c3ccccc3)cc(N3CCOCC3)c2c1 | 709 s
38 | CCc1ccccc1NC(=O)Cn1c(N2CCOCC2)nc(C)cc1=O | 674 s
39 | COc1ccc(N2CCN(c3ncc(S(=O)(=O)c4ccc(C)cc4)c(N)n3)CC2)cc1 | 919 s
40 | COc1ccc(-c2nnc3ccc(SCC(=O)Nc4cc(C)on4)nn23)cc1OC | 606 s
41 | CNC(=O)c1ccc(-c2nc3cc(NS(=O)(=O)c4ccc(C(C)C)cc4)ccc3n2C)cc1 | 713 s
42 | CC(=O)N1c2ccc(S(=O)(=O)N3CCCCC3)cc2CC1C(=O)NCCc1ccccc1 (stereo unspecified) | 868 s
43 | CCOc1ccc(-n2ccn3cc(-c4cccc(OC)c4)nc3c2=O)cc1 | 847 s
44 | Cc1ccc(NC(=O)C2CCCN2S(=O)(=O)c2cc3c(cc2C)NC(=O)CO3)cc1Cl (stereo unspecified) | 791 s

Row | SMILES | RP-LC retention time
45 | Cc1cc(NC(=O)C(C)Oc2ccc(-c3cnc4ccccc4n3)cc2)no1 (stereo unspecified) | 890 s
46 | Cc1sc(-c2cc(C(F)(F)F)[nH]n2)cc1S(=O)(=O)N1CCN(c2ccccc2F)CC1 | 1170 s
47 | CCCC(=O)Nc1ccc(-c2nc(Cn3nc(C)cc3C)c(C)o2)cc1 | 818 s
48 | COc1cc(NC(=O)Cn2c(=O)n(-c3ccc(F)cc3)c(=O)c3c2cc(C)n3C)cc(OC)c1 | 798 s
49 | CCOc1ccccc1NC(=O)C1CCCN(S(=O)(=O)c2cc(-c3noc(C)n3)cs2)C1 (stereo unspecified) | 1060 s
50 | CCc1ccc(NS(=O)(=O)c2cc(-c3[nH]ncc3C(=O)N3CCCC3)oc2C)cc1 | 758 s
51 | CCC(C)NC(=O)CSc1nc2nc(C)cc(C)n2n1 (stereo unspecified) | 650 s
52 | CCc1nnc(-c2ccc(S(=O)(=O)NC3CCCC3)o2)o1 | 815 s
53 | COc1ccc(C(=O)Nc2nc(-c3ccc([N+](=O)[O-])cc3)cs2)cc1OC | 1010 s
54 | COCCc1noc(-c2cnc3nc(C)ccc3c2Nc2ccc(Cl)cc2)n1 | 760 s
55 | O=C(NCc1ccccn1)c1cccn1Cc1noc(-c2ccc(Cl)cc2)n1 | 743 s
56 | CCOC(=O)c1cnc2nc(C)ccc2c1Nc1cccc(F)c1 | 689 s
57 | CN1CCCCCC(O)c2cc(C(=O)NC3CCCCC3)ccc21 (stereo unspecified) | 654 s
58 | CCn1cc(C2=CCN(S(=O)(=O)c3cccc(Cl)c3)CC2)c2cccnc21 | 1070 s
59 | CN1C(=O)C(c2c(-c3ccc(Br)cc3)[nH]c3[nH]c(=O)[nH]c(=O)c23)c2ccccc21 (stereo unspecified) | 721 s
60 | C=C1C(=O)O[C@@H]2[C@H]3O[C@]3(C)CC/C=C(/C)CC[C@@H]12 | 972 s
61 | COc1ccccc1N1CCN(c2nnc(SC(C)C)s2)CC1 | 952 s
62 | O=S(=O)(Nc1ccccc1)c1ccc(-c2nnc(C3CCC3)o2)o1 | 883 s
63 | Cc1ccc(C)c(NC(=O)Cn2c(N)nc(C)c(C)c2=O)c1 | 631 s
64 | CN(C)C[C@@H]1CN(Cc2ccccc2)C[C@H]1NS(=O)(=O)c1cccc(F)c1 | 586 s
65 | Cc1noc(-c2cccc(OC3CN(C(=O)c4ccoc4)C3)c2)n1 | 787 s
66 | CC1(C(=O)NCc2ccccc2)CN(S(=O)(=O)c2ccccc2)CC(=O)N1C1CCCC1 (stereo unspecified) | 787 s
